This note sets out measurements from PubChem BioAssay (NCI).

The structures appear in SMILES notation. Values joined by “and” are separate entries in the source; they are usually repeats but may differ in a detail not shown here. Equal values may be shown once.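 Exposure lasted 48 hours, with cells grown in 96-well plates and compounds tested at five concentrations. GI50 marks 50% less growth. TGI marks complete inhibition of growth.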 A value given as a limit tells only on which side of the number the result lay.

Some test systems named below: OVCAR-8 ovarian; MDA-MB-231 breast; HS 578T breast; SR leukemia; SN12C renal; UO-31 renal; NCI/ADR-RES ovarian; IGROV1 ovarian; CCRF-CEM leukemia; UACC-257 melanoma.
Assay in all cases: NCI tumour cell line growth inhibition, 48 h

In the case of `O=[N+]([O-])c1ccccc1N/N=C\c1c[nH]c2ccccc12`, the GI50 in the experiment with OVCAR-8 ovarian was 12 µM; with MDA-MB-231 breast, 2.98 µM; in the experiment with HS 578T breast, 3.9 µM; in the experiment on SR leukemia it was 3.4 µM; in the experiment on SN12C renal it was 10.2 µM; in the experiment on UO-31 renal, 0.658 µM. Besides, the GI50 in the experiment on NCI/ADR-RES ovarian is 8.85 µM; in the experiment with IGROV1 ovarian, 0.0379 µM; with CCRF-CEM leukemia, 5.1 µM; in the experiment on UACC-257 melanoma, 26.4 µM. The TGI is 29.4 µM with OVCAR-8 ovarian; 20.5 µM with MDA-MB-231 breast; 25.8 µM in the experiment with HS 578T breast; over 100 µM in the experiment with SR leukemia; over 100 µM in the experiment with SN12C renal; over 65.9 µM in the experiment on UO-31 renal. The TGI is over 100 µM in the experiment with NCI/ADR-RES ovarian, 3.92 µM in the experiment with IGROV1 ovarian, over 100 µM in the experiment with CCRF-CEM leukemia and over 100 µM with UACC-257 melanoma.
Turning to `NC(N)=N/N=C/c1c(-c2cc(Cl)sc2Cl)nc2sccn12`, the GI50 with OVCAR-8 ovarian is 1.04 µM; with MDA-MB-231 breast, 0.751 µM; in the experiment on HS 578T breast, 0.89 µM; in the experiment with SR leukemia it was 1.35 µM; in the experiment on SN12C renal it was 0.642 µM; in the experiment with UO-31 renal, 2 µM. The GI50 in the experiment on NCI/ADR-RES ovarian was 7.71 µM; in the experiment on IGROV1 ovarian, 1.14 µM; in the experiment on CCRF-CEM leukemia, 0.807 µM; with UACC-257 melanoma it was 8.6 µM. The TGI in the experiment on OVCAR-8 ovarian was 2.84 µM; in the experiment with MDA-MB-231 breast, 1.75 µM; with HS 578T breast, 2.77 µM; with SR leukemia, 2.68 µM; in the experiment on SN12C renal, 1.41 µM; in the experiment on UO-31 renal, over 50 µM. Besides, the TGI in the experiment with NCI/ADR-RES ovarian was 15.4 µM; in the experiment with IGROV1 ovarian, 8.08 µM; in the experiment with CCRF-CEM leukemia it was 1.68 µM; in the experiment with UACC-257 melanoma, 17.6 µM.
For `CC1=CC(=C(c2ccc(N)cc2)c2ccc(N)cc2)C=CC1=N`, the GI50 with OVCAR-8 ovarian is 0.759 µM and 1.51 µM; in the experiment with MDA-MB-231 breast it was 2.33 µM and 2.87 µM; in the experiment with HS 578T breast, 0.209 µM and 0.841 µM; in the experiment on SN12C renal, 0.422 µM and 0.456 µM; with UO-31 renal it was 9.52 µM and 14.9 µM; in the experiment on NCI/ADR-RES ovarian, 9.31 µM and 25.7 µM. Also, the GI50 was 4.06 µM and 5.72 µM in the experiment on IGROV1 ovarian; 0.626 µM in the experiment on CCRF-CEM leukemia; 2.4 µM and 3.1 µM in the experiment with UACC-257 melanoma. For the same compound, the TGI in the experiment on OVCAR-8 ovarian is 34.5 µM and 31.4 µM and 12.4 µM; in the experiment on SR leukemia, over 58.8 µM; in the experiment on SN12C renal it was 13.5 µM and 10 µM and 69.3 µM; with UO-31 renal, 55.6 µM and 50.5 µM and 41.3 µM; in the experiment on NCI/ADR-RES ovarian, 46.6 µM and 61.9 µM and > 100 µM; in the experiment with IGROV1 ovarian, 35.9 µM and > 57.7 µM and 35.1 µM. Also, the TGI with CCRF-CEM leukemia was 8.16 µM and 31.3 µM; in the experiment on UACC-257 melanoma, 14.4 µM and 19 µM and 10.7 µM.
As for `Nc1nc(OCc2cc(Br)cs2)c2[nH]cnc2n1`, the GI50 in the experiment with OVCAR-8 ovarian is 33.3 µM; in the experiment with MDA-MB-231 breast it was 27.8 µM; in the experiment with HS 578T breast, 25.6 µM; in the experiment on SR leukemia, 29.5 µM; in the experiment with SN12C renal, 29.6 µM; in the experiment on UO-31 renal, 11.1 µM. For the same compound, the GI50 in the experiment with NCI/ADR-RES ovarian was 29.5 µM; in the experiment on IGROV1 ovarian, 14.5 µM; in the experiment with CCRF-CEM leukemia, 37.5 µM. Besides, the TGI in the experiment with OVCAR-8 ovarian is over 100 µM; in the experiment on MDA-MB-231 breast it was over 100 µM; in the experiment on HS 578T breast it was 83.7 µM; in the experiment on SR leukemia it was over 100 µM; with SN12C renal, over 100 µM; with UO-31 renal it was 60.4 µM. The TGI with NCI/ADR-RES ovarian was over 100 µM; in the experiment with IGROV1 ovarian, 52.1 µM; with CCRF-CEM leukemia, over 100 µM.
Consider `O=C(/C(=C\c1ccc([N+](=O)[O-])cc1)S(=O)Cc1ccc(F)cc1)c1ccc(F)cc1` (stereo unspecified), for which the GI50 with OVCAR-8 ovarian is 2.17 µM; in the experiment on MDA-MB-231 breast it was 1.99 µM; in the experiment with HS 578T breast it was 3.3 µM; with SN12C renal it was 1.9 µM; with UO-31 renal, 1.52 µM; in the experiment on NCI/ADR-RES ovarian, 2.43 µM. Also, the results for the GI50 with IGROV1 ovarian, in the experiment on CCRF-CEM leukemia and in the experiment on UACC-257 melanoma were 1.69 µM, 1.48 µM and 1.79 µM, respectively. Further, the TGI was 5.34 µM in the experiment with OVCAR-8 ovarian; 4.35 µM in the experiment on MDA-MB-231 breast; 75 µM with HS 578T breast; 3.99 µM in the experiment on SN12C renal; 3.23 µM with UO-31 renal; 6.98 µM in the experiment with NCI/ADR-RES ovarian. Also, the TGI with IGROV1 ovarian was found to be 3.49 µM; in the experiment on CCRF-CEM leukemia, 6.75 µM; in the experiment on UACC-257 melanoma, 3.73 µM.
Regarding `O=C1c2ccccc2S(=O)(=O)N1CSC(=S)N1CCCCC1`, the GI50 was over 100 µM in the experiment on OVCAR-8 ovarian; over 100 µM in the experiment with MDA-MB-231 breast; over 100 µM in the experiment on HS 578T breast; 0.266 µM in the experiment with SR leukemia; over 46.5 µM in the experiment with SN12C renal; over 100 µM in the experiment with UO-31 renal. For the same compound, the GI50 was over 100 µM with NCI/ADR-RES ovarian, over 89 µM in the experiment with IGROV1 ovarian and over 100 µM with UACC-257 melanoma. Besides, the TGI with OVCAR-8 ovarian, in the experiment with MDA-MB-231 breast, in the experiment with HS 578T breast, in the experiment on SR leukemia, in the experiment on SN12C renal and with UO-31 renal was over 100 µM each time. In addition, the TGI in the experiment with NCI/ADR-RES ovarian, in the experiment on IGROV1 ovarian and with UACC-257 melanoma was over 100 µM in each case.
With `O=C(O)c1cc(/C=C/c2cc(O)ccc2O)ccc1O`, the TGI with OVCAR-8 ovarian, with MDA-MB-231 breast, in the experiment on HS 578T breast, with SR leukemia, in the experiment on SN12C renal and with UO-31 renal was over 10 µM throughout. In addition, the TGI with NCI/ADR-RES ovarian, in the experiment with CCRF-CEM leukemia and in the experiment with UACC-257 melanoma was over 10 µM throughout.
For `Cc1ccc(S(=O)(=O)N2CCSCCN(S(=O)(=O)c3ccc(C)cc3)CCN(S(=O)(=O)c3ccc(C)cc3)CC2)cc1`, the TGI in the experiment on OVCAR-8 ovarian was over 100 µM; in the experiment on MDA-MB-231 breast it was 59.5 µM; in the experiment with HS 578T breast, over 100 µM; in the experiment on SN12C renal it was over 100 µM; in the experiment on UO-31 renal, over 100 µM; in the experiment on NCI/ADR-RES ovarian it was over 100 µM. In addition, the TGI in the experiment on IGROV1 ovarian and in the experiment on CCRF-CEM leukemia was over 100 µM throughout.
As for `CNC(=O)OCc1c2ccncc2c(C)c2c1[nH]c1ccccc12`, the TGI with OVCAR-8 ovarian amounted to 2.16 µM; in the experiment on MDA-MB-231 breast, 2.87 µM; in the experiment with HS 578T breast it was 3.12 µM; in the experiment with SN12C renal it was 1.94 µM; with UO-31 renal, 0.966 µM; in the experiment with NCI/ADR-RES ovarian it was 2.3 µM. Besides, the TGI came out at 1.3 µM in the experiment with IGROV1 ovarian and 2.05 µM with UACC-257 melanoma.
With `COc1ccc2c(c1)[n+](=O)c(C(=O)c1ccco1)c(C(F)(F)F)n2[O-]`, the GI50 was 2.23 µM in the experiment with OVCAR-8 ovarian; 3.01 µM in the experiment with MDA-MB-231 breast; 3.08 µM in the experiment with HS 578T breast; 0.346 µM in the experiment with SR leukemia; 3.01 µM with SN12C renal; 0.387 µM in the experiment with UO-31 renal. Further, the GI50 in the experiment with NCI/ADR-RES ovarian was 2 µM; in the experiment on IGROV1 ovarian, 2.57 µM; in the experiment on UACC-257 melanoma, 1.44 µM. Besides, the TGI in the experiment with OVCAR-8 ovarian was 9.41 µM; in the experiment with MDA-MB-231 breast it was 13.2 µM; in the experiment on HS 578T breast it was 8.86 µM; in the experiment on SR leukemia it was over 100 µM; with SN12C renal it was 11.8 µM; in the experiment on UO-31 renal, 2.51 µM. Moreover, the TGI was determined as 6.57 µM in the experiment on NCI/ADR-RES ovarian, 20.4 µM with IGROV1 ovarian and 4.83 µM in the experiment on UACC-257 melanoma.
`COc1cc(OC)c(/C=C\c2ccnc3ccccc23)c(OC)c1`: the TGI worked out at 15.4 µM in the experiment with MDA-MB-231 breast; 12.1 µM in the experiment with HS 578T breast; 12.6 µM in the experiment with SR leukemia; 16.3 µM with SN12C renal; 3.55 µM in the experiment on UO-31 renal; 10.2 µM with NCI/ADR-RES ovarian. Also, the figures for the TGI with IGROV1 ovarian, in the experiment on CCRF-CEM leukemia and in the experiment on UACC-257 melanoma were 15.5 µM, 5.75 µM and 17.8 µM, respectively.
As to `CC1COc2c(N3CCN(C)CC3)c(F)cc3c(=O)c(C(=O)O)cn1c23` (stereo unspecified), the GI50 with OVCAR-8 ovarian was over 100 µM; with MDA-MB-231 breast it was 81.7 µM; with HS 578T breast, over 100 µM; with SN12C renal it was over 100 µM; in the experiment with UO-31 renal it was 47.5 µM; in the experiment with NCI/ADR-RES ovarian it was over 100 µM. For the same compound, the GI50 in the experiment with IGROV1 ovarian, with CCRF-CEM leukemia and in the experiment on UACC-257 melanoma was over 100 µM each time. Moreover, the TGI in the experiment on OVCAR-8 ovarian, with MDA-MB-231 breast, in the experiment on HS 578T breast, with SN12C renal, in the experiment on UO-31 renal and in the experiment with NCI/ADR-RES ovarian was over 100 µM throughout. Moreover, the TGI with IGROV1 ovarian, in the experiment with CCRF-CEM leukemia and in the experiment on UACC-257 melanoma was over 100 µM in each case.
Turning to `N/N=C(\C(=O)Nc1ccc(Cl)cc1Cl)C(c1cnc2ccccc2n1)[N+](=O)[O-]` (stereo unspecified), the TGI with OVCAR-8 ovarian, in the experiment on MDA-MB-231 breast, in the experiment with HS 578T breast, with SN12C renal, in the experiment with UO-31 renal and in the experiment with NCI/ADR-RES ovarian was over 100 µM throughout. In addition, the TGI in the experiment with IGROV1 ovarian, in the experiment with CCRF-CEM leukemia and in the experiment on UACC-257 melanoma was over 100 µM each time.
`O=C1NC(=O)C(=C/C=C/c2ccccc2)C(=O)N1`: the GI50 in the experiment on OVCAR-8 ovarian is 3.01 µM; with MDA-MB-231 breast, 3.73 µM; in the experiment with HS 578T breast, 4.81 µM; in the experiment with SR leukemia it was 0.716 µM; in the experiment with SN12C renal it was 3.27 µM; in the experiment with NCI/ADR-RES ovarian, 3.78 µM. In addition, the GI50 in the experiment on CCRF-CEM leukemia was 3.57 µM; with UACC-257 melanoma, 2.24 µM. Moreover, the TGI with OVCAR-8 ovarian was 17.8 µM; with MDA-MB-231 breast it was 16 µM; with HS 578T breast, 50.4 µM; with SR leukemia, over 100 µM; in the experiment on SN12C renal it was 19.5 µM; in the experiment on NCI/ADR-RES ovarian, 16.7 µM. Further, the results for the TGI with CCRF-CEM leukemia and in the experiment on UACC-257 melanoma were over 100 µM and 7.34 µM, respectively.
